From patent US20220017478A1, “2-BENZOYLAMINOBENZAMIDE DERIVATIVES AS BCL-3 INHIBITORS” (University College Cardiff Consultants Limited, priority 2013, published 2022)

How the values were obtained:
[1] = test system: NF-κB activity; assay: NF-κB luciferase reporter assay in MDA-MB-231 cells overexpressing Bcl-3; format: cell-based, human; conditions: for IC50: MDA-MB-231 overexpressing Bcl-3, 24 hrs then reporter 48 hrs, read-out: IC50 NF-κB activity
Protocol: For NF-κB luciferase assays, cells were seeded into clear bottom black 96-well plates (Corning Inc., Lowell, US) in antibiotic free culture media in appropriate density. After 24 hrs, cells were transfected with 10 ng of 3×κB luciferase plasmid and 10 ng of pcDNA3.1-Lacl plasmid per well. Empty pcDNA3.1 plasmid was also included to normalize the total weight of DNA transfected to 100 ng. For positive and negative controls respectively, 10 ng of pGL3control or pGL3basic were transfected in place of 3×KB luciferase plasmid. Transfection was carried out using Lipofectamine LTX reagents (Invitrogen, Paisley, UK).
After 48 hrs post-transfection with luciferase reporter plasmid, the media was aspirated and cells were lyzed using 50 μl/well of Glo-lysis buffer (Promega, Southampton, UK). The plate was left on a rocker for 20 min to facilitate complete cell lysis. Then, 20 μl of lysate from each well was removed and transferred into a new clear bottom black well plate for measuring LacZ activity as a transfection efficiency control and followed by addition of 20 ul/well of Beta-Glo substrate (Promega, Southampton, UK) and cultivation at room temperature for at least 20 min. Subsequently, 30 μl/well of Bright-Glo luciferase substrate (Promega, Southampton, UK) was added to the original plate and asses immediately for luminescence activity. The luminescence produced from either reaction was read using a Flurostar Optima plate reader (BMG tabtech, Bucks, UK).
The effect of Compound 1a on NF-κB activity was determined by NF-κB luciferase assay in MDA-MB-231 and HEK-293 cells overexpressing Bcl-3 and HEK-293 cells overexpressing p52. Cells were cultivated with Compound 1a over a range of molarities for 24 hrs before being transfected with NF-κB luciferase reporter plasmid for 48 hrs and analyzed for NF-κB activity.
The effect of selected analogues on NF-κB activity was determined by NF-KB luciferase assay in MDA-MB-231 cells. MDA-MB-231 Bcl-3 over-expressing cells were cultivated with compounds from series 1-3 at 1 μM concentration for 24 hrs before being transfected with NF-κB luciferase reporter plasmid for 48 hrs together with controls and analyzed for NF-κB activity.
Based on the results for the series of analogues, we have established dose response curve for selected analogues from series 1 (If), from series 2 (2a and 2c) and from series 3 (3a) over a range of molarities. MDA-MB-231 Bcl-3 WT cells were cultivated with selected compounds from series 1-3 over a range of molarities for 24 hrs before being transfected with NF-κB luciferase reporter plasmid for 48 hrs together with controls and analyzed for NF-κB activity (FIG. 7).

[2] = Cell Titre Blue viability assay, HEK-293; format: cell-based; conditions: human, HEK-293 cells, HEK-293, 10 μM, vs DMSO
From the text: In all assays, a DMSO control was always used.

[3] = Cell Titre Blue viability assay, MDA-MB-231; conditions: human, MDA-MB-231 cells
Protocol: (§1) The viability of cells at experimental endpoints for particular assays was determined using the Cell Titre Blue reagent (Promega, Southampton, UK). This reagent measures the cellular metabolic activity using resazurin as an indicator dye. Viable cells, therefore metabolically active, will reduce resazurin into highly fluorescent resofurin. The resulting fluorescence levels are measured and indicate cell viability.
(§2) Cells were plated at low confluency into 96 well plates in 100 μl of complete growth media in triplicates and were incubated at 37° C. in 5% CO2 for the desired test exposure period. For each 100 μl of media in 96 well plates, 20 μl Cell Titre Blue reagent was added followed by incubation for an hour at 37° C. in 5% CO2. Fluorescence was then measured by setting excitation/emission wavelengths to 560/590 nm on a Flurostar Optima plate reader (BMG tabtech, Bucks, UK).
(§3) Cell toxicity was evaluated using the Cell Titre Blue viability assay over a range of molarities for 24 hrs.
(§4) Selected compounds were dissolved in DMSO and diluted to a highest concentration of 10 μM (0.1% DMSO). In all assays, a DMSO control was always used. Selected compounds were tested for cell toxicity in HEK-293 and MDA-MB-231 cells before being used in cell-based assays. Cell toxicity was evaluated using the Cell Titre Blue viability assay over a range of molarities for 24 hrs

[4] = test system: MDA-MB-231 cells; conditions: 10 µM
Protocol: as §1, §2, §3, §4

| SMILES | IC50 [1] | viability at 24 h, 10 µM [2] | viability at 24 h, 10 µM [3] | also measured |
| --- | --- | --- | --- | --- |
| O=C(Nc1ccc(I)cc1C(=O)NCCN1CCOCC1)c1ccccc1F [Compound 3c, 2-[(2-fluorobenzoyl)amino]-5-iodo-N-(2-morpholin-4-ylethyl)benzamide] | – | – | – | effect on NF-κB activity ([1]; 1 μM, 24 hrs, MDA-MB-231 Bcl-3 over-expressing cells, vs DMSO control / Compound 1a): significant decrease in NF-κB activity |
| O=C(Nc1ccccc1C(=O)NCCN1CCOCC1)c1ccc(F)cc1F [Compound 1q, 2,4-difluoro-N-(2-[(2-morpholin-4-ylethyl)carbamoyl]phenyl) benzamide] | 989 nM | – | – | – |
| O=C(Nc1ccccc1C(=O)NCCN1CCOCC1)c1cc(F)cc(F)c1 [Compound 1o, 3,5-difluoro-N-(2-[(2-morpholin-4-ylethyl)carbamoyl]phenyl) benzamide] | 238 nM | – | – | – |
| COc1cccc(C(=O)Nc2ccccc2C(=O)NCCN2CCOCC2)c1 [Compound 1e, 2-[(3-methoxybenzoyl)amino]-N-(2-morpholin-4-ylethyl)benzamide] | – | > 70% | > 70% | – |
| O=C(Nc1ccccc1C(=O)NCCN1CCOCC1)c1ccc([N+](=O)[O-])cc1 [Compound 1i, 2-[(4-nitrobenzoyl)amino]-N-(2-morpholin-4-ylethyl) benzamide] | – | – | – | cell viability [4]: above 70% |
| O=C(NCCN1CCOCC1)c1ccccc1NC(=O)c1ccccc1[N+](=O)[O-] [Compound 1g, 2-[(2-nitrobenzoyl)amino]-N-(2-morpholin-4-ylethyl)benzamide] | – | > 70% | > 70% | – |
| O=C(Nc1ccccc1C(=O)NCCN1CCOCC1)c1ccc(F)cc1 [Compound 1c, 2-[(4-fluorobenzoyl)amino]-N-(2-morpholin-4-ylethyl)benzamide] | – | > 70% | > 70% | – |
| O=C(NCCN1CCOCC1)c1ccccc1NC(=O)c1c(F)cccc1F [Compound 1p, 2,6-difluoro-N-(2-[(2-morpholin-4-ylethyl)carbamoyl]phenyl) benzamide] | 706 nM | – | – | – |
